Laboratory results as given in patent US10696689B2, “Somatostatin modulators and uses thereof” (CRINETICS PHARMACEUTICALS, INC., priority 2018, dated 2020).

How the values were obtained:
[1] = biological target: human SST2 receptor (SSTR2) (Homo sapiens (Human), UniProt P30874); test: cAMP assay: inhibition of cAMP via human SST2 receptor in CHO-K1 cells; assay type: cell-based; conditions: CHO-K1 cells stably expressing human SSTR2, NKH477 stimulated
From the text: (§1) General overview: All five SSTR subtypes are Gi coupled G-protein coupled receptors (GPCRs) that lead to decreases in intracellular cyclic AMP (cAMP) when activated by an agonist. Therefore, measurement of intracellular cAMP levels can be used to assess whether compounds of the invention are agonists of SSTR subtypes (John Kelly, Troy Stevens, W. Joseph Thompson, and Roland Seifert, Current Protocols in Pharmacology, 2005, 2.2.1-2.2). One example of an intracellular cAMP assay is described below.
(§2) Four days prior to the assay, 5,000 Chinese hamster ovary cells (CHO-K1, ATCC # CCL-61) stably expressing the human somatostatin receptor subtype 2 are plated in each well of a 96-well tissue culture-treated plate in Ham's F12 growth media (ThermoFisher #10-080-CM) supplemented with 10% donor bovine serum (Gemini Bio-Products #100-506), 100 U/mL penicillin; 100 ug/mL streptomycin; 2 mM L-glutamine (Gemini Bio-Products #400-110) and 0.2 mg/mL hygromycin B (GoldBio #31282-04-9). The cells are cultured at 37° C., 5% CO2 and 95% humidity. On the day of the assay, the media is aspirated and the cells are treated with 50 μL of 1.6 μM NKH477 (Sigma # N3290) plus various dilutions of compounds of the invention in assay buffer [1× Hank's Balanced Salt Solution (ThermoFisher # SH3058802), 0.5 mM HEPES pH 7.4, 0.1% bovine serum albumin, 0.2 mM 3-Isobutyl-1-methylxanthine (IBMX, VWR #200002-790)]. The cells are incubated for 20 minutes at 37° C. (the final concentration of the compounds of the invention are typically 0-10,000 nM). The cells are treated with 50 μL of lysis buffer (HRTF cAMP kit, Cisbio). The lysate is transferred to 384-well plates and cAMP detection and visualization antibodies are added and incubated for 1-24 hours at room temperature. The time-resolved fluorescent signal is read with a Tecan M1000Pro multiplate reader. The intracellular cAMP concentrations are calculated by regression to a standard curve and are plotted vs. the concentration of the compounds of the invention and the EC50 of the compounds are calculated using standard methods. All data manipulations are in GraphPad Prism v6.

[2] = system: hSSTR2 vs. hSSTR4; test: Selectivity for inhibition of cAMP via hSSTR2 vs. hSSTR4; assay type: cell-based, human
From the text: as §1, §2

Chain of human SST2 receptor (SSTR2) (P30874 whole entry): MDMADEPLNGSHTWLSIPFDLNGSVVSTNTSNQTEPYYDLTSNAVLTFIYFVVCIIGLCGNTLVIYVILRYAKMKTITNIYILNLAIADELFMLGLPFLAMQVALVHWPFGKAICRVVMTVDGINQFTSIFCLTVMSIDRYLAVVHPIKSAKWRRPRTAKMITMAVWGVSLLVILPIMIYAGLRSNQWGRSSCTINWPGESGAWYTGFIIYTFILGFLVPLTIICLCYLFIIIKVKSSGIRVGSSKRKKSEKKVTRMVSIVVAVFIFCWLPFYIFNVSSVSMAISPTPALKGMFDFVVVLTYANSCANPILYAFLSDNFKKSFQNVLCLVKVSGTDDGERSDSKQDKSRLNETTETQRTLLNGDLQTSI

Structure (SMILES) | EC50 [1] | hSST4/hSST2 (ratio) ([2]; Table B) | hSST4/hSST2 (ratio) ([2]; Table C)
COc1cc(C#N)cc2[nH]c(-c3c(N)ncc(-c4cc(C)cc(F)c4)c3N3CCC(N)CC3)nc12 [Compound 1-1, 2-[2-amino-4-(4-aminopiperidin-1-yl)-5-(3-fluoro-5-methylphenyl)pyridin-3-yl]-4-methoxy-1H-1,3-benzodiazole-6-carbonitrile] | < 0.1 nM | a (a = above 50,) | 
COc1cc(C#N)cc2[nH]c(-c3c(N)ncc(-c4cc(F)cc(Cl)c4)c3N3CCC(N)CC3)nc12 [Compound 1-2, 2-[2-amino-4-(4-aminopiperidin-1-yl)-5-(3-chloro-5-fluorophenyl)pyridin-3-yl]-4-methoxy-1H-1,3-benzodiazole-6-carbonitrile] | 0.1 to 1 nM |  | 
COc1cc(C#N)cc2nc(-c3c(N(C)C)ncc(-c4cc(C)cc(F)c4)c3N3CCC(N)CC3)[nH]c12 [Compound 1-3, 2-[4-(4-aminopiperidin-1-yl)-2-(dimethylamino)-5-(3-fluoro-5-methylphenyl)pyridin-3-yl]-4-methoxy-1H-1,3-benzodiazole-6-carbonitrile] | ≥ 1 nM |  | 
COC(=O)c1ncc(-c2cc(C)cc(F)c2)c(N2CCC(N)CC2)c1-c1nc2cc(F)cc(OC)c2[nH]1 [Compound 2-1, methyl 4-(4-aminopiperidin-1-yl)-3-(6-fluoro-4-methoxy-1H-1,3-benzodiazol-2-yl)-5-(3-fluoro-5-methylphenyl)pyridine-2-carboxylate] | 0.1 to 1 nM | d (d = between 1 and 2.5;) | 
COc1cc(F)cc2nc(-c3c(C#N)ncc(-c4cc(C)cc(F)c4)c3N3CCC(N)CC3)[nH]c12 [Compound 2-2, 4-(4-aminopiperidin-1-yl)-3-(6-fluoro-4-methoxy-1H-1,3-benzodiazol-2-yl)-5-(3-fluoro-5-methylphenyl)pyridine-2-carbonitrile] | 0.1 to 1 nM |  | 
COc1cc(F)cc2nc(-c3c(C(N)=O)ncc(-c4cc(C)cc(F)c4)c3N3CCC(N)CC3)[nH]c12 [Compound 2-3, 4-(4-aminopiperidin-1-yl)-3-(6-fluoro-4-methoxy-1H-1,3-benzodiazol-2-yl)-5-(3-fluoro-5-methylphenyl)pyridine-2-carboxamide] | 0.1 to 1 nM |  | 

Second part, led by results:

EC50 [1] | Structure (SMILES) | hSST4/hSST2 (ratio) ([2]; Table B) | hSST4/hSST2 (ratio) ([2]; Table C)
< 0.1 nM | Cc1cc(F)cc(-c2cnc(N)c(-c3nc4c(F)cc(F)cc4[nH]3)c2N2CC[C@@H]3NCCO[C@H]3C2)c1 [Compound 3-1, 4-[(4αS,8αS)-octahydro-1H-pyrido[3,4-b][1,4]oxazin-6-yl]-3-(4,6-difluoro-1H-1,3-benzodiazol-2-yl)-5-(3-fluoro-5-methylphenyl)pyridin-2-amine] |  | 
0.1 to 1 nM | Nc1ncc(-c2cc(F)cc(F)c2)c(N2CCC3OCCNC3C2)c1-c1nc2c(F)cc(F)cc2[nH]1 (centres unmarked) [Compound 3-2, 4-[(4αS,8αS)-octahydro-1H-pyrido[3,4-b][1,4]oxazin-6-yl]-3-(4,6-difluoro-1H-1,3-benzodiazol-2-yl)-5-(3,5-difluorophenyl)pyridin-2-amine] |  | 
0.1 to 1 nM | CNc1ncc(-c2cc(F)cc(F)c2)c(N2CC[C@@H]3NCCO[C@H]3C2)c1-c1nc2c(F)cc(F)cc2[nH]1 [Compound 3-6, 4-[(4αS,8αS)-octahydro-1H-pyrido[3,4-b][1,4]oxazin-6-yl]-3-(4,6-difluoro-1H-1,3-benzodiazol-2-yl)-5-(3,5-difluorophenyl)-N-methylpyridin-2-amine] |  | 
< 0.1 nM | Nc1ncc(-c2cc(F)cc(Cl)c2)c(N2CC[C@@H]3NCCO[C@H]3C2)c1-c1nc2c(F)cc(F)cc2[nH]1 [Compound 3-7, 4-[(4αS,8αS)-octahydro-1H-pyrido[3,4-b][1,4]oxazin-6-yl]-5-(3-chloro-5-fluorophenyl)-3-(4,6-difluoro-1H-1,3-benzodiazol-2-yl)pyridin-2-amine] |  | 
< 0.1 nM | COc1cc(F)cc(-c2cnc(N)c(-c3nc4c(F)cc(F)cc4[nH]3)c2N2CCC3OCCNC3C2)c1 (centres unmarked) [Compound 3-8, 4-[(4αS,8αS)-octahydro-1H-pyrido[3,4-b][1,4]oxazin-6-yl]-3-(4,6-difluoro-1H-1,3-benzodiazol-2-yl)-5-(3-fluoro-5-methoxyphenyl)pyridin-2-amine] |  | 
0.1 to 1 nM | COc1cc(F)cc2[nH]c(-c3c(N)ncc(-c4cccc(F)c4)c3N3CC[C@@H]4NCCO[C@H]4C3)nc12 [Compound 3-9, 4-[(4αS,8αS)-octahydro-1H-pyrido[3,4-b][1,4]oxazin-6-yl]-3-(6-fluoro-4-methoxy-1H-1,3-benzodiazol-2-yl)-5-(3-fluorophenyl)pyridin-2-amine] |  | c (c = between 2.5 and 15;)
0.1 to 1 nM | CNc1ncc(-c2cccc(F)c2)c(N2CC[C@@H]3NCCO[C@H]3C2)c1-c1nc2c(OC)cc(F)cc2[nH]1 [Compound 3-10, 4-[(4αS,8αS)-octahydro-1H-pyrido[3,4-b][1,4]oxazin-6-yl]-3-(6-fluoro-4-methoxy-1H-1,3-benzodiazol-2-yl)-5-(3-fluorophenyl)-N-methylpyridin-2-amine] |  | a (a = above 50,)
≥ 1 nM | CNc1ncc(-c2cccc(F)c2)c(N2CC[C@@H]3NCCO[C@H]3C2)c1-c1nc2c(OC)cc(C#N)cc2[nH]1 [Compound 3-12, 2-{4-[(4αS,8αS)-octahydro-1H-pyrido[3,4-b][1,4]oxazin-6-yl]-5-(3-fluorophenyl)-2-(methylamino)pyridin-3-yl}-4-methoxy-1H-1,3-benzodiazole-6-carbonitrile] |  | a (a = above 50,)
0.1 to 1 nM | CNc1ncc(-c2cc(F)cc(Cl)c2)c(N2CC[C@@H]3NCCO[C@H]3C2)c1-c1nc2c(OC)cc(F)cc2[nH]1 [Compound 3-13, 4-[(4αS,8αS)-octahydro-1H-pyrido[3,4-b][1,4]oxazin-6-yl]-5-(3-chloro-5-fluorophenyl)-3-(6-fluoro-4-methoxy-1H-1,3-benzodiazol-2-yl)-N-methylpyridin-2-amine] |  | a (a = above 50,)
< 0.1 nM | COc1cc(F)cc2[nH]c(-c3c(N)ncc(-c4cc(C)cc(F)c4)c3N3CC[C@@H]4NCCO[C@H]4C3)nc12 [Compound 3-14, 4-[(4αS, 8αS)-octahydro-1H-pyrido[3,4-b][1,4]oxazin-6-yl]-3-(6-fluoro-4-methoxy-1H-1,3-benzodiazol-2-yl)-5-(3-fluoro-5-methylphenyl)pyridin-2-amine] |  | 
< 0.1 nM | CNc1ncc(-c2cc(C)cc(F)c2)c(N2CCC3OCCNC3C2)c1-c1nc2c(OC)cc(F)cc2[nH]1 (centres unmarked) [Compound 3-15, 4-[(4αS,8αS)-octahydro-1H-pyrido[3,4-b][1,4]oxazin-6-yl]-3-(6-fluoro-4-methoxy-1H-1,3-benzodiazol-2-yl)-5-(3-fluoro-5-methylphenyl)-N-methylpyridin-2-amine] |  | 
< 0.1 nM | COc1cc(C#N)cc2[nH]c(-c3c(N)ncc(-c4cc(C)cc(F)c4)c3N3CC[C@@H]4NCCO[C@H]4C3)nc12 [Compound 3-16, 2-{4-[(4αS,8αS)-octahydro-1H-pyrido[3,4-b][1,4]oxazin-6-yl]-2-amino-5-(3-fluoro-5-methylphenyl)pyridin-3-yl}-4-methoxy-1H-1,3-benzodiazole-6-carbonitrile] |  | 
< 0.1 nM | COc1cc(F)cc2[nH]c(-c3c(N)ncc(-c4cc(F)cc(Cl)c4)c3N3CC[C@@H]4OCCN[C@H]4C3)nc12 [Compound 3-17, 4-[(4αS,8αS)-octahydro-1H-pyrido[3,4-b][1,4]oxazin-6-yl]-5-(3-chloro-5-fluorophenyl)-3-(6-fluoro-4-methoxy-1H-1,3-benzodiazol-2-yl)pyridin-2-amine] |  | c (c = between 2.5 and 15;)
